Experimental data taken from patent publication US20080003590A1, “Termination of Binding Parameters” (priority 2004, published 2008).

Experiments:
[1] = Determination of the membrane affinity of warfarin in the 96-well format (FI-EiPC support, internal filter effect); assay type: physicochemical; settings: triple determination, 70 μM warfarin, FI-EiPC support in PBS
Description: 4. Reconstitution of Lipid Membranes on Fluorescence-Active Supports (FI-EiPC)
For the reconstitution of lipid membranes, firstly 1 g of a support prepared according to 2. is treated with a solution of 25 mg of sodium polystyrenesulfonate in 25 ml of water in the overhead rotator and then washed three times each with water and PBS.
60 ml of a vesicle solution of 5 mg/ml EiPC (lipid extract from egg yolk) in PBS (prepared by homogenization in the Avestin Co EmulsiFlex-C5 homogenizer) are added to this support and incubated overnight. To remove excess lipid, this is washed three times with PBS and the support is then stored in PBS. The determination of the lipid concentration is effected by drying of defined volumes of suspension, detachment of the lipid from the solid body using an organic solvent, and then HPLC analysis.
Well reference 1: 100 μl FI-Ref suspension+200 μl PBS
Well substance 1: 100 μl FI-Ref suspension+170 μl PBS+30 μl warfarin solution;
Well reference 1′: 100 μl FI-EiPC suspension+200 μl PBS
Well substance 1′: 100 μl FI-EiPC suspension+170 μl PBS+30 μl warfarin solution; whereby the final concentration of warfarin in the wells is 70 μM. […]

[2] = target: human serum albumin (HSA) (Homo sapiens, UniProt P02768); experiment: biochemical
Sequence of human serum albumin (HSA) (P02768 25-609): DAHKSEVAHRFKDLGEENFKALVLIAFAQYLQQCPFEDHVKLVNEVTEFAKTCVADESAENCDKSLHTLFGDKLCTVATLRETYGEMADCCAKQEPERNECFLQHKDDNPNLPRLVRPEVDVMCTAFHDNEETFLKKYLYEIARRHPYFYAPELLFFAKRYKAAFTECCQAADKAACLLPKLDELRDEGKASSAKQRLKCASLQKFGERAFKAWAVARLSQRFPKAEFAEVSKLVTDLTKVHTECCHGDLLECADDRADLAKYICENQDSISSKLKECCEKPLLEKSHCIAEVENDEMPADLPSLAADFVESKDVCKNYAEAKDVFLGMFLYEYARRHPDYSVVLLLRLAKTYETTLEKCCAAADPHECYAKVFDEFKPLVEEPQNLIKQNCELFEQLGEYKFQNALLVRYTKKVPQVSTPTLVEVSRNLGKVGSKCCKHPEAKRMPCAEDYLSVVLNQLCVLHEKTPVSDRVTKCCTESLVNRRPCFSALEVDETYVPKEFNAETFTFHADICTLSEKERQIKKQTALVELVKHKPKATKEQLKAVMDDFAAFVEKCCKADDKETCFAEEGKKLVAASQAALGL
Description: 5. Immobilization of Human Serum Albumin (HSA) on Fluorescence-Active Supports (FI-HSA)
For the immobilization of HSA, 100 mg of HSA dissolved in 10 ml of phosphate buffer (20 mM, pH 7.4) are added to 1 g of a support prepared according to 2. and rotated overhead for at least four hours. To remove free protein, this is washed with phosphate buffer, 1M NaCl in phosphate buffer and finally with PBS. The quantification of the protein immobilization is effected by supernatant analysis. The suspension is adjusted to a desired protein concentration in PBS and stored.
For the determination of the albumin binding, 200 mg of the FI-HSA support prepared in 5. were made up to a total volume of 1 ml with PBS, and similarly 200 mg of an FI-Ref prepared according to 3. were made up to 1 ml with PBS.
For the determination of the concentration-dependent quantities, the following volumes were pipetted into the wells of a 384 well UV plate (Greiner UV-plate): […]
whereby the final concentration of carbamazepine in the wells is 70 μM. […] For the determination of the concentration-dependent quantity cpre-binding, excitation spectra of the wells reference 1 and substance 1 are recorded in the “top-read” mode between 250 and 480 nm with an emission wavelength of 530 nm, and calculated from cpre-binding=log F0v(λ)/Fv(λ), where F0v(λ) and Fv(λ) are the excitation spectra of the wells reference 1 and substance 1. […]

Structure (SMILES): CC(=O)CC(c1ccccc1)c1c(O)c2ccccc2oc1=O (centres unmarked) [warfarin]
- membrane affinity [1]: 1.7±0.3

Structure (SMILES): NC(=O)N1c2ccccc2C=Cc2ccccc21 [carbamazepine]
- Kd [2]: 170 µM
